Data published in patent publication EP4420661B1, “SMALL MOLECULES TARGETING GLYCOPROTEIN VI AS ANTIPLATELET AGENTS FOR USE IN THE PREVENTION AND/OR TREATMENT OF THROMBOSIS AND ASSOCIATED PATHOLOGIES” (Universidade de Santiago de Compostela, priority 2023, dated 2024).
In brackets after ≈: the same amount, converted by molar mass.

Legend:
[1] = molecular target: T1, GPVI (Homo sapiens, UniProt Q9HCN6); test: label-free biophysical binding assay based on dynamic mass redistribution (DMR), immobilized GPVI; conditions: for interaction with GPVI, Mean: DMR response; for interaction profile with GPVI (in words): concentration-response
T1 sequence (Q9HCN6 21-267 limits assumed): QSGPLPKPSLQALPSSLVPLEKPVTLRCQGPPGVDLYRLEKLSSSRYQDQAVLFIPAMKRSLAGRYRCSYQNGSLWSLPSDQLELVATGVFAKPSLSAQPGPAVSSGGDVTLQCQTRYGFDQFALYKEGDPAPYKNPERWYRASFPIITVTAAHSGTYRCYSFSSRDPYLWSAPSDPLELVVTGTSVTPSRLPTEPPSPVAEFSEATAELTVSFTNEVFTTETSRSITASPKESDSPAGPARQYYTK
From the text: A biophysical assay to test direct interaction with GPVI was developed by using a label-free methodology based on dynamic mass redistribution (DMR).
This protocol consists of immobilizing the target protein in a surface by chemical means and then measure the refractory index of a light directed to the bottom of the surface, which contains a sensor. It has been used previously for other targets to determine the potency of ligands such as peptides and molecules [Akhter et al., (2017) and Álvarez-Coiradas et al., (2020)].
Briefly, EnSpire LFB high sensitivity plates (PerkinElmer 6057460, USA) were activated with 400 mM EDC (N-(3-dimethylaminopropyl)-N'- ethylcarbodiimide hydrochloride) (Sigma Aldrich, UK) and 100 mM sulfo-NHS (sulfo-N-hydroxysulfosuccinimide) (Thermo Fisher, USA) diluted in ultrapure water for 30 min at room temperature. Microplates were subsequently washed with ultrapure water. GPVI protein was immobilized (25 µg/ml) in 20 mM sodium acetate buffer, pH 5.5. After an overnight incubation at 4 °C, the microplate was wa- shed with PBS with 0.005% Tween-20, pH 7.4 (assay buffer). Baseline was read after three hours on EnSpireTM 2300 Multilabel Plate Reader (PerkinElmer, Singapore). Compounds were added to the microplate, incubated for 1 h and the final read was performed in the EnSpireTM 2300 Multilabel Plate Reader. Recombinant CRP and assay buffer were employed as a positive and a negative control, respectively.
Compounds were assayed by means of concentration-response curves with concentrations between 100 µM and 0.4 µM (1:3 serial dilutions in triplicates), while CRP was assayed similarly starting with 7µg/ml top dose and a total of 6 concentrations (1:2 serial dilutions in triplicates). Response (pm) was obtained by subtracting the baseline measurement from the final read.

[2] = tested on: human platelets; test: intracellular Ca+2 mobilization assay, CRP-activated washed platelets (FLIPR Calcium 4); assay type: cell-based; conditions: Platelet, calcium mobilization in human platelets, read-out: % Inhibition of CRP effect at 1µM, Mean
Description: An intracellular Ca^+2 mobilization assay was used to test the activity of the ligands in platelets. This assay measures the changes in calcium in real time by fluorophore dye Calcium 4, providing a useful way to characterize platelet activation by GPVI signaling [Barrachina et al. (2021)].
Washed platelets (5x10E6) were incubated with FLIPR Calcium 4 reagent (Molecular Devices LLC, San Jose, CA, USA) in a 384-well transparent bottom plate (Greiner Bio-One International GmbH, Kremsmünster, Austria) and supplemented with Probenecid (Invitrogen™, Carlsbad, CA, USA) 0.07% for 1 h at 37 °C. Platelets were co-incubated for 10 min with the tested compounds and inhibitors of secondary mediators (2 U/mL apyrase and 10 microM indomethacin (Sigma-Aldrich, Saint Louis, MO, USA)) under nonaggregating conditions (9 microM eptifibatide (Cayman Chemicals, Ann Arbor, MI, USA)). Then, the GPVI-specific agonist Collagen-Related Peptide (CRP) was added to the platelet suspension at different doses. Both potential GPVI inhibitors and CRP were automatically dispensed by FDSS7000EX Functional Drug Screening System (Hamamatsu Photonics, Hamamatsu, Japan). Intracellular Ca^2+ mobilization was assessed by measuring fluorescence changes ([…] wavelengths) in real time for 15 min after the addition of the agonist. 100% was expressed as maximal Ca^2+ release in platelets treated with the agonist CRP. To determine IC50, compounds were tested at 9 different concentrations in duplicates starting from 10 uM and performing 1:3 serial dilutions. The analysis of the data was performed with GraphPad Prism® software (version 6.0e, March 2014) (GraphPad Software, San Diego, CA, USA) by carrying out a nonlinear regression fit for log(inhibitor) vs. relative CRP activity using a Hill slope of -1, and top and bottom constraints of 100 and 0, respectively.

[3] = tested on: human platelets; test: platelet aggregation assay, CRP-induced; assay type: cell-based; conditions: 10 µM; CRP 1 µg/mL; Figure 2
Description: Platelet aggregation assays were carried out to assess the potency of the active compounds as previously described [Barrachina et al. (2021)].
Briefly, human platelets from at least =7 healthy individuals were isolated and washed. Then, the suspension was incubated with the compounds at 10 µM at 37 ∘C for 4 min in a Chrono-log® 490-X aggregometer (Chrono-log Corporation, Havertown, PA, USA). After that, platelets were stimulated with the agonist CRP at 1 µg/mL for 5 min.

[4] = tested on: human platelets; test: platelet spreading assay on CRP (phalloidin staining, confocal microscopy); assay type: cell-based; conditions: 10µM; CRP 1µg/mL; Figure 4
Description: Platelet spreading experiments were carried out to assess the potency of the compounds of formula (I), exemplified by compounds (If)and (Ih).
Platelets can change from a rounded, non-adherent form to adhere and flatten shape when exposed to ligands. This "spreading" effect can lead to the formation of cytoskeletal protein rearrangement. Platelet adhesion and extent of spreading (area covered) can be quantified.
Briefly, human platelets from healthy individuals were isolated and washed. Then, platelets were incubated with the inhibitors at 10µM for 5 min at room temperature and then for 45 min at 37°C in coverslips coated with 1µg/mL of agonist (CRP).
The images of platelet shape given by phalloidin staining were acquired by confocal fluorescence microscopy and the area analyzed by ImageJ [Onselaer et al., (2020)].

[5] = physchem; conditions: 37 °C, aqueous buffer, kinetic from dmso stock
Description: (§5) Solubility was determined by nephelometry to assess its potential impact on the bioassays at active concentrations.
(§6) Then, said compounds were incubated for 2 hours at 37°C and read in a NEPHELOstar Plus (BMG LABTECH).

[6] = * from Dehring et al. (2004); cited from earlier work
[7] = solubility by nephelometry; conditions: 37 °C, aqueous buffer, kinetic from dmso stock
Description: as §5, §6

[8] = tested on: human platelets; test: platelet aggregation selectivity assay (agonists collagen, rhodocytin, thrombin); assay type: cell-based; conditions: 10 µM
Description: In addition, an assessment of the selectivity of the active compound (Ic)at 10 µM was carried out based on aggregation assays. Briefly, human platelets from healthy individuals were isolated and washed. The agonists used in this selectivity assay were collagen, rhodocytin, and thrombin.

[9] = metabolic stability, dog microsomes; assay type: in vitro ADME
Description: (§1) Microsomes from Tebu-bio Xenotech were employed in the assay, having a content of 20 mg/ml of protein. The following quantities were added to each well of a 96-well microplate. Table 6: Metabolic stability assay.
(§2) Plates were incubated at 37°C and 75 µL samples were taken at 0, 10, 20, 40 and 60 minutes.
(§3) Samples were transferred to a microplate and 75 µl Acetonitrile + IS(Rolipram) were added for inactivating the microsomes, and 30 µl of H2O with 0.5% formic acid for improving the chromatographic conditions and kept at 4°C. When all the samples were taken the plate was centrifuged at […] for 30 min at 15°C. Stationary phase: ACQUITY BEH C18 1.7µm 2.1x50mm (Waters) Mobile phase: A: 0.1% formic; B: acetonitrile+0.1% formic acid Gradient: Table 6: UPLC gradient / Metabolic stability assay
(§4) Metabolic stability was calculated from the logarithm of the remaining compound at each of the times evaluated.

[10] = metabolic stability, mouse microsomes; assay type: in vitro ADME
Description: Samples were transferred to a microplate and 75 µl Acetonitrile + IS(Rolipram) were added for inactivating the microsomes, and 30 µl of H2O with 0.5% formic acid for improving the chromatographic conditions and kept at 4°C. When all the samples were taken the plate was centrifuged at 46000 g for 30 min at 15°C. Stationary phase: ACQUITY BEH C18 1.7µm 2.1x50mm (Waters) Mobile phase: A: 0.1% formic; B: acetonitrile+0.1% formic acid Gradient: Table 6: UPLC gradient / Metabolic stability assay

[11] = metabolic stability, human microsomes; assay type: in vitro ADME
Description: as §1, §2, §3, §4

[12] = metabolic stability, rat microsomes; assay type: in vitro ADME
Description: as §1, §2, §3, §4

## O=C(Cc1ccc2c(c1)OCCO2)Nc1nc(-c2ccc(Cl)cc2)cs1 [Compound (Ib)]
[1]; Compound concentration (1µM)
  interaction with GPVI, Mean: 13.76 pm
[1]; Compound concentration (10µM)
  interaction with GPVI, Mean: 20.47 pm
[2]
  inhibition at 1 µM: 15.9%
[3]
  inhibition of platelet aggregation (in words): consistent inhibition of platelet aggregation
[4]
  platelet spreading on CRP (in words): inhibition of platelet spreading on CRP
[5]; pbs with 1% dmso
  solubility at 2 h: 50 µM (≈ 19.3 µg/mL)

## COc1cc2nc(N3CCN(C(=O)c4ccco4)CC3)nc(N)c2cc1OC [Prazosin, reference compound]
[6]
  Reported solubility: 26.3* µM
[5]
  solubility at 2 h: 77.2 µM (≈ 29.6 µg/mL)

## O=C(Cc1ccc2c(c1)OCCO2)Nc1nc(-c2ccccc2)cs1 [Compound (Ia)]
[1]; Compound concentration (1µM)
  interaction with GPVI, Mean: 10.8 pm
[1]; Compound concentration (10µM)
  interaction with GPVI, Mean: 19.81 pm
[2]
  inhibition at 1 µM: 53.7%
[5]; pbs with 1% dmso
  solubility at 2 h: 5.4 µM (≈ 1.9 µg/mL)

## O=C(Cc1ccc2c(c1)OCCO2)Nc1nc2c(Cl)cccc2s1 [Ref. compound B, reference compound]
[1]; Compound concentration (1µM)
  interaction with GPVI, Mean: 6.77 pm
[1]; Compound concentration (10µM)
  interaction with GPVI, Mean: -16.01 pm
[1]; DMR
  interaction profile with GPVI (in words): did not show a good interaction profile

## C[C@H]1O[C@@H](O[C@H]2[C@@H](O)C[C@H](O[C@H]3[C@@H](O)C[C@H](O[C@H]4CC[C@@]5(C)[C@H](CC[C@@H]6[C@@H]5C[C@@H](O)[C@]5(C)[C@@H](C7=CC(=O)OC7)CC[C@]65O)C4)O[C@@H]3C)O[C@@H]2C)C[C@H](O)[C@@H]1O [Digoxin, reference compound]
[6]
  Reported solubility: 59.3* µM
[7]
  solubility at 2 h: 96.9 µM (≈ 75.7 µg/mL)

## Cc1ccc2nc(NC(=O)Cc3ccc4c(c3)OCCO4)sc2c1 [Ref. compound A, reference compound]
[1]; Compound concentration (1µM)
  interaction with GPVI, Mean: -9.78 pm
[1]; Compound concentration (10µM)
  interaction with GPVI, Mean: 1.91 pm
[1]; DMR
  interaction profile with GPVI (in words): did not show a good interaction profile

## O=C(Cc1ccc2c(c1)OCCO2)Nc1nc(-c2ccc(Br)cc2)cs1 [Compound (Ic)]
[1]; Compound concentration (1µM)
  interaction with GPVI, Mean: 12.37 pm
[1]; Compound concentration (10µM)
  interaction with GPVI, Mean: 25.42 pm
[2]
  inhibition at 1 µM: 34%
[8]; agonist collagen
  platelet aggregation, platelets exposed to collagen (in words): consistent inhibition of platelet aggregation
[8]; agonist rhodocytin
  platelet aggregation induced by rhodocytin (in words): unchanged
[8]; agonist thrombin
  platelet aggregation induced by thrombin (in words): unchanged
[3]
  inhibition of platelet aggregation (in words): consistent inhibition of platelet aggregation
[4]
  platelet spreading on CRP (in words): inhibition of platelet spreading on CRP
[5]; pbs with 1% dmso
  solubility at 2 h: 51.9 µM (≈ 22.4 µg/mL)

## O=C(Cc1ccc2c(c1)OCCO2)Nc1nc(-c2ccc3c(c2)CCCC3)cs1 [Compound (Id)]
[1]; Compound concentration (1µM)
  interaction with GPVI, Mean: 17.38 pm
[1]; Compound concentration (10µM)
  interaction with GPVI, Mean: 28.66 pm
[2]
  inhibition at 1 µM: 36%
[5]; pbs with 1% dmso
  solubility at 2 h: 21.9 µM (≈ 8.9 µg/mL)

## CC(=O)[C@H]1CC[C@H]2[C@@H]3CCC4=CC(=O)CC[C@]4(C)[C@H]3CC[C@]12C [Progesterone, reference compound]
[6]
  Reported solubility: 3.7* µM
[5]
  solubility at 2 h: 5.1 µM (≈ 1.6 µg/mL)

## C[C@]12CC[C@H]3[C@@H](CCC4=CC(=O)CC[C@@]43C)[C@@H]1CC[C@@H]2O [Testosterone, reference compound]
[9]; Dog microsomes, (*) sampling time 60 min
  % remanent (*): 49.1%
[9]; dog, dog microsomes
  half-life: 59.9 min
  microsomal CLint: 11.8 µL/min/mg
[10]
  t1/2: 4.76 min
[10]; (*) sampling time 60 min
  % remanent (*): 0.06%
[11]
  t1/2: 12.95 min
[11]; (*) sampling time 60 min
  % remanent (*): 4.02%
[12]; Rat microsomes, (*) sampling time 60 min
  % remanent (*): 0.14%
[12]; rat, rat microsomes
  half-life: 0.9 min

## O=C(Cc1ccc2c(c1)OCCO2)Nc1nc(-c2ccc3ccccc3c2)cs1 [Compound (Ie)]
[1]; Compound concentration (1µM)
  interaction with GPVI, Mean: 6.50 pm
[1]; Compound concentration (10µM)
  interaction with GPVI, Mean: 25.16 pm
[2]
  inhibition at 1 µM: 24.6%
[3]
  inhibition of platelet aggregation (in words): consistent inhibition of platelet aggregation
[5]; pbs with 1% dmso
  solubility at 2 h: 22.5 µM (≈ 9.06 µg/mL)

## collagen related peptide [CRP]
[1]
  interaction profile with GPVI (in words): robust dose-dependent response
